From US7842678B2, “Compositions comprising oligosaccharides” (priority 2003, dated 2010)

Legend:
[1] = tested on: VTEC NCTC 12900 adhesion to HT29 cells; test: Adhesion assay of VTEC to HT29 cells, cultures subcultured on three successive days (Example 2); format: cell-based, E. coli; conditions: for Inhibition of adhesion of VTEC to HT29 cells (FIG. 2): VTEC subcultured on three successive days; for Inhibition of adhesion of VTEC to HT29 cells (FIG. 1): 2.5 mg ml, plate counting, relative to oligosaccharide-free control
Method: VTEC NCTC 12900 was inoculated from frozen stocks into Dulbecco's modified eagle medium (DMEM) with added non-essential amino acids (1% v/v) and foetal bovine serum (5% v/v). The culture was incubated anaerobically at 37° C. for 18 h. A 20 μl aliquot was transferred into 2 ml of fresh DMEM, and incubated under the same conditions for 24 h. This was repeated twice more, so that the organism was subcultured on three successive days. An adhesion assay was then carried out as described previously, using 2.5 mg ml methyl-α-D-mannopyrannoside and D-mannose, and the adhered bacteria were enumerated by using plate counting.
Alpha 1,2 mannobiose and alpha 1,6 mannobiose were assayed for anti-adhesive activity using the method described hereinabove, with the modification that the VTEC cultures were subcultured on three successive days as described above.
Further oligosaccharides (pectic oligosaccharides, isomalto-oligosaccharides, GOS, partially hydrolyzed guar gum, xylo oligosaccharides and lactulose) have been tested for anti-adhesive activity against E. coli, both VTEC and EPEC pathovars. Methods were as described previously but with three subcultures included in the culture preparation stage, as described above. Compounds tested included GOS and pectic oligosaccharides that had been further purified by ultrafiltration to remove nitrates.

[2] = tested on: VTEC adhesion to HT29 cells; test: Adhesion assay of VTEC to HT29 cell monolayers (Example 1); format: cell-based, E. coli
Method: (§1) HT29 cells were grown to 95-100% confluence in 12-well tissue culture plates. Bacterial cultures were grown in tissue culture medium, anaerobically at 37° C. These incubation conditions promoted expression of adhesions by the bacteria. The bacteria (in buffer, with or without the test oligosaccharide) were added to the cell monolayers and incubated for 2 h at 37° C. aerobically under 5% CO2. After incubation, the cell layers were washed three times in buffer and the adherent bacteria quantified. Assays were performed in triplicate
(§2) The tested oligosaccharides were methyl-α-mannopyrannoside and CGMP.
(§3) After the adhesion and washing stages, the cells were suspended and vigorously mixed to break up clumps. The resulting suspension was then plated onto non-selective agar media appropriate for the test organism.
(§4) The Initial inoculum was 7.3 log cfu ml^−1 (VTEC) and 7.0 log cfu ml^−1 (EPEC).

[3] = tested on: EPEC adhesion to HT29 cells; test: Adhesion assay of EPEC to HT29 cell monolayers (Example 1); format: cell-based, E. coli; conditions: oligosaccharide concentration 0.25%; initial inoculum 7.0 log cfu ml^−1; buffer only 5.3; 2 h at 37° C.
Method: as §1, §2, §3, §4

[4] = tested on: E. coli EPEC (O119:H4) adhesion to HT29 cells; test: Adhesion assay of carbohydrates against E. coli EPEC on HT29 monolayers (Example 3); format: cell-based; conditions: carbohydrate solution 5 mg/ml in PBS mixed 1:1 with bacterial suspension; 2 hours at 37° C. aerobically; relative to carbohydrate-free control
Method: The saccharides were tested against one strain of E. coli VTEC (0157:1H7 strain NCTC 12900) and one strain of E. coli EPEC (O119:H4).
E. coli broth cultures for adhesion assays were grown in DMEM supplemented with 5% v/v FBS and 1% non-essential amino acid solution (SDMEM). For each strain, a broth was inoculated from a slope culture and incubated anaerobically at 37° C. for 18-24 h. The overnight culture was then inoculated (1% v/v) into fresh SDMEM and incubated for a further 18-24 h under the same conditions. This was repeated once more. On the day of the assay, a 10% v/v inoculum was placed into pre-warmed SDMEM and incubated for 4 h anaerobically at 37° C.
A culture of the test strain was prepared as described above, then diluted 1:500 in PBS. The viable count of the diluted suspension was determined by spread plating onto PCA, with decimal dilutions carried out in MRD as necessary. The carbohydrates to be tested were dissolved in PBS (5 mg/ml) and sterilised by passing through a 0.2 μm syringe filter. […] A 1 ml aliquot of PBS was then pipetted into each well, and pipette mixed until the monolayer was completely dislodged and clumps broken up (as determined visually). […]
Data processing: Viable counts were calculated for all wells and the inoculum, and expressed as colony forming units per ml (cfu/ml). For each test, the mean and standard error of the triplicate wells were calculated. […]

Row | Molecule | Inhibition of adhesion of VTEC to HT29 cells (FIG. 2) [1] | Inhibition of adhesion of VTEC to HT29 cells (FIG. 1) [1] | further results
1 | OC[C@H]1O[C@H](O[C@@H]2C(O)O[C@H](CO)[C@@H](O)[C@@H]2O)[C@@H](O)[C@@H](O)[C@@H]1O (stereo partly drawn) [Alpha 1,2 mannobiose] | Inhibition of adhesion was detected | – | –
2 | O=C[C@@H](O)[C@@H](O)[C@H](O)[C@H](O)CO [D-mannose] | – | good inhibition of adhesion | –
3 | OC[C@H]1O[C@H](OC[C@H]2O[C@H](O)[C@@H](O)[C@@H](O)[C@@H]2O)[C@@H](O)[C@@H](O)[C@@H]1O [alpha 1,6 mannobiose] | Inhibition of adhesion was detected | – | –
4 | CO[C@H]1O[C@H](CO)[C@@H](O)[C@H](O)[C@@H]1O [methyl-α-mannopyranoside, Methyl-α-D-mannopyranoside] | Inhibition of adhesion | good inhibition of adhesion | Reduction in adhesion (in words) ([2]; oligosaccharide 0.25%, pathovar not given): reduction in adhesion; Viable count of adhered VTEC ([2]; oligosaccharide concentration 0.25%, initial inoculum 7.3 log cfu ml^−1, buffer only 6.3, 2 h at 37° C.): 4.8 log cfu ml^−1; Viable count of adhered EPEC [3]: 5.1 log cfu ml^−1
5 | β-1,3-glucan [curdlan] | – | – | Anti-adhesive activity against enteropathogenic E. coli EPEC (FIG. 5) [4]: positive
